Results from ChEMBL document CHEMBL4346757, “Synthesis and biological evaluation of 7-methoxy-1-(3,4,5-trimethoxyphenyl)-4,5-dihydro-2H-benzo[e]indazoles as new colchicine site inhibitors” (Bioorg Med Chem Lett, 2019).

What was measured:
Assay type in all cases: functional
SR = assay: Growth inhibition of human SR cells assessed as cell growth at 0.01 uM after 48 hrs by SRB assay relative to control; conditions: read-out: Activity
EKVX [1] = assay: Growth inhibition of human EKVX cells assessed as cell growth at 0.01 uM after 48 hrs by SRB assay relative to control; conditions: read-out: Activity
SK-OV-3 [2] = assay: Growth inhibition of human SKOV3 cells assessed as cell growth at 0.01 uM after 48 hrs by SRB assay relative to control; conditions: SK-OV-3, 48 h, read-out: Activity
MOLT-4 = assay: Growth inhibition of human MOLT4 cells assessed as cell growth at 0.1 uM after 48 hrs by SRB assay relative to control; conditions: MOLT-4, 48 h, read-out: Activity
EKVX [3] = assay: Growth inhibition of human EKVX cells assessed as cell growth at 0.1 uM after 48 hrs by SRB assay relative to control; conditions: read-out: Activity
HCT-15 = assay: Growth inhibition of human HCT15 cells assessed as cell growth at 0.1 uM after 48 hrs by SRB assay relative to control; conditions: HCT-15, 48 h, read-out: Activity
Hs-578T [4] = assay: Growth inhibition of human Hs 578T cells assessed as cell growth at 0.1 uM after 48 hrs by SRB assay relative to control; conditions: read-out: Activity
OVCAR-3 [5] = assay: Growth inhibition of human OVCAR3 cells assessed as cell growth at 1 uM after 48 hrs by SRB assay relative to control; conditions: OVCAR-3, 48 h, read-out: Activity
NCI/ADR-RES = assay: Growth inhibition of human NCI-ADR-RES cells assessed as cell growth at 1 uM after 48 hrs by SRB assay relative to control; conditions: read-out: Activity
CAKI-1 = assay: Growth inhibition of human Caki1 cells assessed as cell growth at 1 uM after 48 hrs by SRB assay relative to control; conditions: CAKI-1, 48 h, read-out: Activity
UO-31 = assay: Growth inhibition of human UO31 cells assessed as cell growth at 1 uM after 48 hrs by SRB assay relative to control; conditions: UO-31, 48 h, read-out: Activity
PC-3 = assay: Growth inhibition of human PC3 cells assessed as cell growth at 1 uM after 48 hrs by SRB assay relative to control; conditions: PC-3, 48 h, read-out: Activity
Hs-578T [6] = assay: Growth inhibition of human Hs 578T cells assessed as cell growth at 1 uM after 48 hrs by SRB assay relative to control; conditions: read-out: Activity
CCRF-CEM [7] = assay: Growth inhibition of human CCRF-CEM cells assessed as cell growth at 10 uM after 48 hrs by SRB assay relative to control; conditions: read-out: Activity
A549 = assay: Growth inhibition of human A549/ATCC cells assessed as cell growth at 10 uM after 48 hrs by SRB assay relative to control; conditions: A549, 48 h, read-out: Activity
HOP-62 = assay: Growth inhibition of human HOP62 cells assessed as cell growth at 10 uM after 48 hrs by SRB assay relative to control; conditions: HOP-62, 48 h, read-out: Activity
SK-MEL-28 = assay: Growth inhibition of human SK-MEL-28 cells assessed as cell growth at 10 uM after 48 hrs by SRB assay relative to control; conditions: SK-MEL-28, 48 h, read-out: Activity
DU-145 = assay: Growth inhibition of human DU145 cells assessed as cell growth at 10 uM after 48 hrs by SRB assay relative to control; conditions: DU-145, 48 h, read-out: Activity
Hs-578T [8] = assay: Growth inhibition of human Hs 578T cells assessed as cell growth at 10 uM after 48 hrs by SRB assay relative to control; conditions: read-out: Activity
HT-29 = assay: Growth inhibition of human HT-29 cells assessed as cell growth at 100 uM after 48 hrs by SRB assay relative to control; conditions: HT-29, 48 h, read-out: Activity
U-251 [9] = assay: Growth inhibition of human U251 cells assessed as cell growth at 100 uM after 48 hrs by SRB assay relative to control; conditions: U-251, 48 h, read-out: Activity
OVCAR-3 [10] = assay: Growth inhibition of human OVCAR3 cells assessed as cell growth at 100 uM after 48 hrs by SRB assay relative to control; conditions: OVCAR-3, 48 h, read-out: Activity
SN12C = assay: Growth inhibition of human SN12C cells assessed as cell growth at 100 uM after 48 hrs by SRB assay relative to control; conditions: read-out: Activity
CCRF-CEM [11] = assay: Cytotoxicity against human CCRF-CEM cells assessed as growth inhibition after 48 hrs by SRB assay
SF-539 = assay: Cytotoxicity against human SF539 cells assessed as growth inhibition after 48 hrs by SRB assay; conditions: SF-539, 48 h
U-251 [12] = assay: Cytotoxicity against human U251 cells assessed as growth inhibition after 48 hrs by SRB assay; conditions: U-251, 48 h
OVCAR-3 [13] = assay: Cytotoxicity against human OVCAR3 cells assessed as growth inhibition after 48 hrs by SRB assay; conditions: OVCAR-3, 48 h
SK-OV-3 [14] = assay: Cytotoxicity against human SKOV3 cells assessed as growth inhibition after 48 hrs by SRB assay; conditions: SK-OV-3, 48 h
[15] = read-out: LC50 (the source's name)
[16] = read-out: pLC50 (the source's name) (converted)

## COc1ccc2c(c1)CCc1n[nH]c(-c3cc(OC)c(OC)c(OC)c3)c1-2
SR
  growth at 0.01 µM: 23%
EKVX [1]
  growth at 0.01 µM: 48%
SK-OV-3 [2]
  growth at 0.01 µM: -1%
MOLT-4
  growth at 0.1 µM: 35%
EKVX [3]
  growth at 0.1 µM: 53%
HCT-15
  growth at 0.1 µM: 4%
Hs-578T [4]
  growth at 0.1 µM: 17%
OVCAR-3 [5]
  growth at 1 µM: 17%
NCI/ADR-RES
  growth at 1 µM: -9%
CAKI-1
  growth at 1 µM: 22%
UO-31
  growth at 1 µM: 28%
PC-3
  growth at 1 µM: 18%
Hs-578T [6]
  growth at 1 µM: 18%
CCRF-CEM [7]
  growth at 10 µM: 41%
A549
  growth at 10 µM: 11%
HOP-62
  growth at 10 µM: 3%
SK-MEL-28
  growth at 10 µM: 34%
DU-145
  growth at 10 µM: 8%
Hs-578T [8]
  growth at 10 µM: 9%
HT-29
  growth at 100 µM: -72%
U-251 [9]
  growth at 100 µM: -72%
OVCAR-3 [10]
  growth at 100 µM: -59%
SN12C
  growth at 100 µM: -47%
CCRF-CEM [11]; read-out: GI50
  GI50: < 0.01 µM
CCRF-CEM [11]; [15]
  CC50: > 100 µM
CCRF-CEM [11]; read-out: TGI
  TGI: > 100 µM
CCRF-CEM [11]; read-out: pGI50 (converted)
  GI50: < 0.01 µM
CCRF-CEM [11]; [16]
  CC50: > 100 µM
CCRF-CEM [11]; read-out: pTGI
  TGI: > 100 µM
SF-539; read-out: GI50
  GI50: < 0.01 µM
SF-539; [15]
  CC50: 29.9 µM
SF-539; read-out: TGI
  TGI: < 0.01 µM
SF-539; read-out: pGI50 (converted)
  GI50: < 0.01 µM
SF-539; [16]
  CC50: 30.2 µM
SF-539; read-out: pTGI
  TGI: < 0.01 µM
U-251 [12]; read-out: GI50
  GI50: < 0.01 µM
U-251 [12]; [15]
  CC50: 51.3 µM
U-251 [12]; read-out: TGI
  TGI: 11.5 µM
U-251 [12]; read-out: pGI50 (converted)
  GI50: < 0.01 µM
U-251 [12]; [16]
  CC50: 51.3 µM
U-251 [12]; read-out: pTGI (converted)
  TGI: 11.5 µM
OVCAR-3 [13]; read-out: GI50
  GI50: < 0.01 µM
OVCAR-3 [13]; read-out: LC50
  LC50 (50% lethal concentration): 75.5 µM
OVCAR-3 [13]; read-out: TGI
  TGI: 14.7 µM
OVCAR-3 [13]; read-out: pGI50 (converted)
  GI50: < 0.01 µM
OVCAR-3 [13]; read-out: pLC50 (converted)
  LC50 (50% lethal concentration): 75.9 µM
OVCAR-3 [13]; read-out: pTGI (converted)
  TGI: 14.8 µM
SK-OV-3 [14]; read-out: GI50
  GI50: < 0.01 µM
SK-OV-3 [14]; [15]
  CC50: > 100 µM
SK-OV-3 [14]; read-out: TGI
  TGI: < 0.01 µM
SK-OV-3 [14]; read-out: pGI50 (converted)
  GI50: < 0.01 µM
SK-OV-3 [14]; [16]
  CC50: > 100 µM
SK-OV-3 [14]; read-out: pTGI
  TGI: < 0.01 µM
